The subject of one test is blood glucose. In words: hypoglycaemic activity: reduction in area under blood glucose curve after glucose load in fasted mice. The test is classed as in vivo, female CFLP mice. The following applies: for inhibition in vivo at 5 mg/kg / inhibition in vivo at 20 mg/kg: Mus musculus, po, 2 h, 30 min before glucose load 1 g/kg sc, 2 hour period, versus control mice; for inhibition in vivo at 5 mg/kg: 5 mg/kg po; for anti-hyperglycaemic activity (in words): general statement, no dose given; for inhibition in vivo at 20 mg/kg: 20 mg/kg po. On the procedure:
Female CFLP mice, weighing approximately 25 g, were fasted for 24 hours prior to the study. The compounds under study were dosed orally (20 mg and 5 mg/kg) to each of 8 mice. 30 minutes later a blood sample ([…]) was obtained from the tail for the analysis of blood glucose. Immediately after taking this blood sample, each mouse was given a glucose load (1 g/kg body weight sub-cutaneously). Blood samples were then obtained from each mouse at 30 minute intervals for 120 minutes.
Compounds that produced a significant (P<0.05) reduction of blood glucose, compared with control mice given water, at any time interval were considered active. The area under the blood glucose curve over the 2 hour period after giving the glucose load was calculated for each compound and compared with the value for control animals. Thus a compound would give a 100% reduction in the area under the blood glucose curve if the blood glucose was maintained at the same level as in untreated fasted animals. Reduction in the glucose curve of more than 100% indicate that a compound, in spite of being given a glucose load, maintained blood glucose levels below that found in control fasted mice.

For another test, the system named is genetically obese mice. As to the kind of experiment: carcass lipid of genetically obese mice after daily oral dosing for 28 days (anti-obesity). The test is classed as in vivo, mouse (genetically obese). Conditions: for g - lipid per mouse, Treated: daily for 28 days; for anti-obesity activity (in words): general statement, no dose given. On the procedure:
(i) The compounds and a comparison compound (salbutamol) were dosed daily in water or carboxymethylcellulose suspension to genetically obese mice by oral gavage for 28 days. At the end of that time the carcass composition was determined.

With `COC(=O)c1ccc(CC(C)(C)NCC(O)c2ccc(O)c(CO)c2)cc1` (stereo not shown) [Example 31, N-(2-[4-Carbomethoxyphenyl]-1,1-dimethylethyl)-2-hydroxy-2-(4-hydroxy-3-hydroxymethylphenyl) ethanamine], in the test with blood glucose, the inhibition in vivo (as a rule, the relative decrease from the control value, in per cent) at 5 mg/kg turned out to be 139% and the “anti-hyperglycaemic activity (in words)” value is recorded as “particularly worthy of mention in view of their anti-hyperglycaemic activity”.

Regarding `COC(=O)c1ccc(CC(C)NCC(O)c2ccc(O)c(CO)c2)cc1C` (stereo not shown) [Example 14, N-[2-(4-Carbomethoxy-3-methylphenyl)-1-methylethyl]-2-hydroxy-2-(4-hydroxy-3-hydroxymethylphenyl)ethanamine], the “g - lipid per mouse, Treated” value in the test with genetically obese mice (10.5 mg/kg po, control 17.0 ± 0.67) is listed as 14.3 ± 0.61 g. For the same compound, the “anti-obesity activity (in words)” value in the test with genetically obese mice is reported as “particularly worthy of mention in view of their anti-obesity activity”.

`COC(=O)c1ccc(C(C)NCC(O)c2ccc(O)c(CO)c2)cc1` (stereo not shown) [Example 18]: the inhibition in vivo at 20 mg/kg in the test on blood glucose amounted to 25%.

Consider `COC(=O)c1ccc(CC(C)NCC(O)c2ccc(O)c(N)c2)cc1` (stereo not shown) [Example 34], for which the inhibition in vivo at 20 mg/kg in the test with blood glucose was determined as 61%.

As for `COC(=O)c1ccc(CC(C)NCC(O)c2ccc(O)c(CO)c2)cc1OC` (stereo not shown) [Example 10, N-[2-(4-Carbomethoxy-3-methoxyphenyl)-1-methylethyl]-2-hydroxy-2-(4-hydroxy-3-hydroxymethylphenyl)ethanamine], in the test with genetically obese mice, the “anti-obesity activity (in words)” value is recorded as “particularly worthy of mention in view of their anti-obesity activity”.

On to `COC(=O)c1ccc(CC(C)NCC(O)c2ccc(O)c(O)c2)cc1` (stereo not shown) [Example 19, N-(2-[4-Carbomethoxyphenyl]-1-methylethyl)-2-(3,4-dihydroxyphenyl)-2-hydroxyethanamine], for which, in the test with blood glucose, the “anti-hyperglycaemic activity (in words)” value was “particularly worthy of mention in view of their anti-hyperglycaemic activity”.

As for `COC(=O)c1ccc(CC(C)(C)NCC(O)c2ccccc2)cc1` (stereo not shown) [Example 26, N-(2-[4-Carbomethoxyphenyl]-1,1-dimethylethyl)-2-hydroxy-2-phenylethanamine], in the test on genetically obese mice (9 mg/kg po, control 18.9 ± 0.66), the “g - lipid per mouse, Treated” value was 16.4 ± 1.2 g. Further, the “anti-obesity activity (in words)” value in the test with genetically obese mice is given as “particularly worthy of mention in view of their anti-obesity activity”.

`CC(Cc1ccc(C(=O)OC(C)C)cc1)NCC(O)c1ccc(O)c(CO)c1` (stereo not shown) [Example 13, N-[2-(4-Carboisopropoxyphenyl)-1-methylethyl]-2-hydroxy-2-(4-hydroxy-3-hydroxymethylphenyl)ethanamine]: the “anti-obesity activity (in words)” value with genetically obese mice was “particularly worthy of mention in view of their anti-obesity activity”.

Regarding `COC(=O)c1ccc(C[C@@H](C)NCC(O)c2ccc(O)c(CO)c2)cc1` (stereo partly drawn) [Example 35, N-(1-(R)-2-[4-Carbomethoxyphenyl]-1-methylethyl)-2-hydroxy-2-(4-hydroxy-3-hydroxymethylphenyl)ethanamine], the “anti-obesity activity (in words)” value in the test with genetically obese mice was “particularly worthy of mention in view of their anti-obesity activity”.

Turning to `CCOC(=O)c1ccc(CC(C)NCC(O)c2ccc(O)c(CO)c2)cc1` (stereo not shown) [Example 16, N-[2-(4-Carboethoxyphenyl)-1-methylethyl]-2-hydroxy-2-(4-hydroxy-3-hydroxymethylphenyl) ethanamine], in the test on genetically obese mice (10 mg/kg po, control 18.3 ± 0.6 (Ex. 7), 16.5 ± 0.7 (Ex. 16, 21)), the “g - lipid per mouse, Treated” value turned out to be 12.9 ± 0.8 g. The “anti-obesity activity (in words)” value in the test on genetically obese mice is recorded as “particularly worthy of mention in view of their anti-obesity activity”.

With `COC(=O)c1ccc(CC(C)NCC(O)c2ccc(O)c(NS(C)(=O)=O)c2)cc1` (stereo not shown) [Example 37, N-(2-[4-Carbomethoxyphenyl]-1-methylethyl)-2-(4-hydroxy-3-methanesulphonamidophenyl)-2-hydroxyethanamine], the “anti-obesity activity (in words)” value in the test with genetically obese mice is “particularly worthy of mention in view of their anti-obesity activity”.

Regarding `COC(=O)c1ccc(CC(C)NCC(O)c2ccc(O)c(NC(C)=O)c2)cc1` (stereo not shown) [Example 38, N-(2-[4-Carbomethoxyphenyl]-1-methylethyl)-2-(3-acetamido-4-hydroxyphenyl)-2-hydroxyethanamine], the inhibition in vivo at 5 mg/kg in the test on blood glucose was 59%.

Take `COC(=O)c1ccc(CC(C)NCC(O)c2ccc(O)cc2Cl)cc1` (stereo not shown) [Example 33, N-(2-[4-Carbomethoxyphenyl]-1-methylethyl)-2-(2-chloro-4-hydroxyphenyl)-2-hydroxyethanamine]: in the test on blood glucose, the inhibition in vivo at 5 mg/kg was found to be 88% and the “anti-hyperglycaemic activity (in words)” value is listed as “particularly worthy of mention in view of their anti-hyperglycaemic activity”.

With `COC(=O)c1ccc(CCNCC(O)c2ccccc2)cc1` (stereo not shown) [Example 25, N-(2-[4-Carbomethoxyphenyl]ethyl)-2-hydroxy-2-phenylethanamine], in the test on blood glucose, the inhibition in vivo at 5 mg/kg was 179% and the “anti-hyperglycaemic activity (in words)” value is recorded as “particularly worthy of mention in view of their anti-hyperglycaemic activity”.

For `COC(=O)c1ccc(C[C@H](C)NCC(O)c2ccc(O)c(CO)c2)cc1` (stereo partly drawn) [Example 36, N-(1-(S)-2-[4-Carbomethoxyphenyl]-1-methylethyl)-2-hydroxy-2-(4-hydroxy-3-hydroxymethylphenyl)ethanamine], in the test on blood glucose, the inhibition in vivo at 5 mg/kg is 79% and the “anti-hyperglycaemic activity (in words)” value is given as “particularly worthy of mention in view of their anti-hyperglycaemic activity”.

For the compound `COC(=O)c1ccc(OCC(C)NCC(O)c2ccc(O)c(CO)c2)cc1` (stereo not shown) [Example 8, N-[2-(4-Carbomethoxyphenoxy)-1-methylethyl]-2-hydroxy-2-(4-hydroxy-3-hydroxymethylphenyl)ethanamine], the “g - lipid per mouse, Treated” value with genetically obese mice (21 mg/kg po, control 21.9 ± 0.5) turned out to be 19.6 ± 0.4 g.

On to `CC(C)(C)NCC(O)c1ccc(O)c(CO)c1` (stereo not shown) [Salbutamol, reference compound], for which the “g - lipid per mouse, Treated” value in the test with genetically obese mice (25 mg/kg po, control 23.0 ± 0.3) is recorded as 23.1 ± 0.6 g.

On to `COC(=O)c1ccc(CC(C)NCC(O)c2ccc(O)c(CS(C)(=O)=O)c2)cc1` (stereo not shown) [Example 39, N-(2-[4-Carbomethoxyphenyl]-1-methylethyl)-2-(4-hydroxy-3-methylsulphonylmethylphenyl)-2-hydroxyethanamine], for which, in the test with blood glucose, the inhibition in vivo at 5 mg/kg was 83% and the “anti-hyperglycaemic activity (in words)” value is “particularly worthy of mention in view of their anti-hyperglycaemic activity”.

Turning to `COC(=O)c1ccc(CC(C)NCC(O)c2ccccc2)c(OC)c1` (stereo not shown) [Example 24, N-(2-[4-Carbomethoxy-2-methoxyphenyl]-1-methylethyl)-2hydroxy-2-phenylethanamine], the “anti-obesity activity (in words)” value in the test with genetically obese mice is on record as “particularly worthy of mention in view of their anti-obesity activity”.

Turning to `COC(=O)c1ccc(CC(C)NCC(O)c2ccccc2)c(Cl)c1` (stereo not shown) [Example 23, N-(2-[4-Carbomethoxy-2-chlorophenyl]-1-methylethyl)-2-hydroxy-2-phenylethanamine], the “anti-obesity activity (in words)” value in the test with genetically obese mice is recorded as “particularly worthy of mention in view of their anti-obesity activity”.

On to `COC(=O)c1ccc(CC(C)NCC(O)c2ccc(O)c(CO)c2)c(F)c1` (stereo not shown) [Example 9, N-[2-(4-Carbomethoxy-2-fluorophenyl)-1-methylethyl]-2-hydroxy-2-(4-hydroxy-3-hydroxymethylphenyl) ethanamine], for which the inhibition in vivo at 5 mg/kg in the test with blood glucose came to 47%.

Consider `CC(Cc1ccc(C(=O)O)cc1)NCC(O)c1ccccc1` (stereo not shown) [Example 44, N-[2-(4-Carboxyphenyl)-1-methylethyl]-2-hydroxy-2-phenylethanamine], for which the “anti-obesity activity (in words)” value in the test with genetically obese mice was “particularly worthy of mention in view of their anti-obesity activity”.

On to `COC(=O)c1ccc(CCNCC(O)c2ccccc2Cl)cc1` (stereo not shown) [Example 27, N-(2-[4-Carbomethoxyphenyl]ethyl)-2-(2-chlorophyenyl)-2-hydroxyethanamine], for which the inhibition in vivo at 5 mg/kg in the test on blood glucose is 38%.

The values above are taken from patent publication US4478849A, “Secondary amines, their preparation and use in pharmaceutical compositions” (Beecham Group Limited, priority 1978, dated 1984).
